Measured values: the supplement of paper PMC10307832

What was measured:
Assay in all cases: relative viability (nuclei count vs DMSO), 5 days (fraction); higher = more cells survive
[1] = compound: C#Cc1cccc(Nc2ncnc3cc(OC)c(OCCCCCCC(=O)NO)cc23)c1 [CUDC-101] + NC(=O)Nc1cc(-c2cccc(F)c2)sc1C(=O)N[C@H]1CCCNC1 [AZD7762] (partner 0.2 µM)
In short: (§1)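 Relative viability was taken as the ratio of nuclei in treated wells to nuclei in vehicle wells. Lung cancer cell lines in 1536-well plates received compounds by pin tool one day after seeding, either one drug alone or a fixed anchor-drug dose plus five library-drug doses (not always all listed) in √10 steps. Nuclei were counted on 4× images after 5 days of treatment, and values are medians of duplicate plates.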

[2] = compound: C#Cc1cccc(Nc2ncnc3cc(OC)c(OCCCCCCC(=O)NO)cc23)c1 [CUDC-101] + COc1cccc2cc(-c3nc([C@H]4CC[C@H](C(=O)O)CC4)n4ncnc(N)c34)[nH]c12 [OSI-027] (partner 0.5 µM)
In short: as §1

[3] = compound: C#Cc1cccc(Nc2ncnc3cc(OC)c(OCCCCCCC(=O)NO)cc23)c1 [CUDC-101] + COc1cc2c(Oc3ccc(NC(=O)C4(C(=O)Nc5ccc(F)cc5)CC4)cc3F)ccnc2cc1OCCCN1CCOCC1 [Foretinib] (partner 0.25 µM)
In short: as §1

[4] = compound: C#Cc1cccc(Nc2ncnc3cc(OC)c(OCCCCCCC(=O)NO)cc23)c1 [CUDC-101] + Nc1ncn([C@H]2C[C@H](O)[C@@H](CO)O2)c(=O)n1 [Decitabine] (partner 2 µM)
In short: as §1

Cell Line	relative viability ([1]; first compound 0.01 µM)	relative viability ([1]; first compound 0.03162 µM)	relative viability ([1]; first compound 0.1 µM)	relative viability ([1]; first compound 0.3162 µM)	relative viability ([1]; first compound 1 µM)	relative viability ([2]; first compound 0.01 µM)	relative viability ([2]; first compound 0.03162 µM)	relative viability ([2]; first compound 0.1 µM)	relative viability ([2]; first compound 0.3162 µM)	relative viability ([2]; first compound 1 µM)	relative viability ([3]; first compound 0.01 µM)	relative viability ([3]; first compound 0.03162 µM)	relative viability ([3]; first compound 0.1 µM)	relative viability ([3]; first compound 0.3162 µM)	relative viability ([3]; first compound 1 µM)	relative viability ([4]; first compound 0.01 µM)	relative viability ([4]; first compound 0.03162 µM)	relative viability ([4]; first compound 0.1 µM)	relative viability ([4]; first compound 0.3162 µM)	relative viability ([4]; first compound 1 µM)
LCLC-103H	0.674	0.739	0.761	0.877	0.675	0.45	0.42	0.485	0.435	0.433	0.753	0.854	0.808	0.751	0.513	0.692	0.695	0.722	0.657	0.633
LK-2	0.508	0.422	0.336	0.263	0.0851	0.217	0.212	0.201	0.203	0.15	1.23	1.19	0.957	0.819	0.554	0.262	0.329	0.384	0.2	0.125
LOU-NH91	0.754	0.751	0.741	0.798	0.556	0.753	0.633	0.523	0.514	0.443	0.862	0.634	0.552	0.589	0.584	0.804	0.706	0.76	0.807	0.711
LU99A	0.301	0.297	0.247	0.198	0.104	0.297	0.305	0.302	0.289	0.239	0.931	0.881	0.684	0.798	0.388	0.824	0.823	0.9	0.831	0.657
LXF-289	1.08	1.13	1.02	1.07	0.811	0.751	0.885	0.766	0.918	0.57	0.972	0.932	0.937	0.877	0.497	0.396	0.418	0.358	0.367	0.301
NCI-H23	0.293	0.161	0.282	0.276	0.226	0.71	0.647	0.631	0.607	0.509	1.06	1	1.04	1.06	0.949	0.317	0.321	0.346	0.307	0.543
NCI-H322M	0.558	0.428	0.496	0.345	0.353	0.679	0.555	0.518	0.417	0.308	0.833	0.706	0.834	0.703	0.503	0.65	0.686	0.625	0.651	0.517
NCI-H358	0.565	0.493	0.518	0.261	0.237	0.834	0.893	0.909	0.884	0.315	0.815	0.565	0.759	0.675	0.179	0.209	0.204	0.174	0.206	0.112
NCI-H441	1.36	1.08	1.34	1.37	1.07	0.622	0.625	0.621	0.803	0.399	0.976	1.23	1.05	0.978	0.937	0.303	0.305	0.262	0.242	0.236
NCI-H460	0.651	0.531	0.564	0.589	0.476	0.701	0.62	0.734	0.762	0.555	0.991	0.917	1.02	1.03	0.93	0.522	0.459	0.423	0.533	0.433
NCI-H596	1.09	1.09	1.12	1.07	1.04	0.655	0.715	0.783	0.805	0.751	0.862	0.902	0.787	0.752	0.729	0.902	1.03	0.988	1.18	1.02
NCI-H647	0.555	0.376	0.567	0.403	0.176	0.68	0.668	0.783	0.596	0.383	1.16	1.11	1.14	1.21	0.877	0.267	0.326	0.308	0.335	0.24
NCI-H650	1.25	0.835	1.03	0.968	0.848	0.58	0.569	0.622	0.587	0.474	1.07	1.01	1.03	1.15	0.801	0.359	0.366	0.323	0.286	0.264
NCI-H727	0.627	0.403	0.562	0.619	0.476	0.633	0.601	0.7	0.578	0.369	0.975	0.85	0.685	0.778	0.424	1.19	0.906	0.944	0.989	0.695
NCI-H838	0.939	0.907	0.94	0.952	0.888	0.411	0.354	0.431	0.523	0.391	1.04	1.02	1.08	1.23	0.862	0.45	0.516	0.49	0.484	0.369
NCI-H1355	0.657	0.645	0.846	0.747	0.598	0.393	0.385	0.411	0.416	0.309	1.08	1.01	1.03	1.07	0.821	0.359	0.313	0.358	0.355	0.313

Cell Line	relative viability ([1]; first compound 0.01 µM)	relative viability ([1]; first compound 0.03162 µM)	relative viability ([1]; first compound 0.1 µM)	relative viability ([1]; first compound 0.3162 µM)	relative viability ([1]; first compound 1 µM)	relative viability ([2]; first compound 0.01 µM)	relative viability ([2]; first compound 0.03162 µM)	relative viability ([2]; first compound 0.1 µM)	relative viability ([2]; first compound 0.3162 µM)	relative viability ([2]; first compound 1 µM)	relative viability ([3]; first compound 0.01 µM)	relative viability ([3]; first compound 0.03162 µM)	relative viability ([3]; first compound 0.1 µM)	relative viability ([3]; first compound 0.3162 µM)	relative viability ([3]; first compound 1 µM)	relative viability ([4]; first compound 0.01 µM)	relative viability ([4]; first compound 0.03162 µM)	relative viability ([4]; first compound 0.1 µM)	relative viability ([4]; first compound 0.3162 µM)	relative viability ([4]; first compound 1 µM)
NCI-H1395	0.374	0.375	0.397	0.396	0.327	0.746	0.629	0.628	0.727	0.508	1.05	0.846	1.01	1.09	0.844	0.794	0.756	0.773	0.709	0.66
NCI-H1437	1.1	1	1.11	1.2	1.05	0.857	0.876	0.886	0.952	0.662	1.38	1.08	1.27	1.38	1.27	0.556	0.537	0.553	0.533	0.498
NCI-H1651	0.502	0.442	0.534	0.398	0.349	0.707	0.67	0.746	0.912	0.679	0.821	0.741	1.07	0.82	0.609	0.671	0.645	0.643	0.594	0.515
NCI-H1666	0.943	0.741	0.879	0.92	0.641	0.85	0.867	0.837	0.857	0.739	0.958	0.979	1	1.06	0.932	0.769	0.734	0.693	0.752	0.61
NCI-H1734	0.521	0.433	0.462	0.312	0.182	0.641	0.577	0.638	0.608	0.38	0.968	0.775	0.863	0.898	0.451	0.514	0.487	0.497	0.471	0.389
NCI-H1755	0.387	0.396	0.463	0.43	0.317	0.624	0.729	0.794	0.781	0.571	0.899	0.905	0.99	1.01	0.903	0.695	0.748	0.83	0.755	0.64
NCI-H1793	0.406	0.31	0.477	0.648	0.211	0.291	0.255	0.255	0.25	0.218	0.669	0.449	0.628	0.5	0.403	0.388	0.493	0.467	0.431	0.435
NCI-H1915	0.717	0.631	0.61	0.548	0.516	0.627	0.597	0.591	0.551	0.404	1.09	1.04	1.08	1.09	0.707	0.262	0.267	0.28	0.248	0.23
NCI-H1944	0.503	0.466	0.44	0.311	0.198	0.436	0.388	0.357	0.36	0.253	0.931	0.691	0.861	0.612	0.397	0.409	0.434	0.431	0.428	0.363
NCI-H1975	0.749	0.743	0.665	0.761	0.722	0.658	0.75	0.728	0.813	0.698	0.856	1.03	0.99	1.04	0.808	0.398	0.451	0.389	0.391	0.374
NCI-H1993	0.811	0.87	0.855	0.704	0.428	0.61	0.552	0.625	0.626	0.657	0.862	0.791	0.839	0.734	0.612	0.62	0.548	0.602	0.586	0.488
NCI-H2085	0.956	1.01	1.06	0.922	0.877	0.577	0.646	0.728	0.835	0.535	0.964	0.929	0.823	0.996	0.697	0.642	0.552	0.634	0.568	0.551
NCI-H2087	1.32	1.46	1.28	1.24	0.815	0.473	0.548	0.463	0.679	0.561	1.33	1.03	1.08	1.04	0.664	0.245	0.313	0.256	0.251	0.237
NCI-H2126	1.01	0.98	0.939	0.945	0.943	0.678	0.659	0.662	0.668	0.508	1.25	0.971	1.08	1.26	1.01	0.564	0.572	0.597	0.567	0.519
NCI-H2170	1.07	0.839	0.819	0.892	0.723	0.697	0.765	0.605	0.686	0.619	0.978	0.973	1.05	0.995	0.903	0.416	0.514	0.485	0.444	0.391
NCI-H2342	0.507	0.459	0.51	0.407	0.353	0.579	0.607	0.59	0.673	0.725	0.995	1.02	1.03	1.08	0.946	0.737	0.718	0.739	0.777	0.709
